Measurements reported in US20080241281A1, “Compositions & methods for activation and inhibition of Staphylococcus aureus biofilm development” (priority 2007, published 2008).

Assays:
[1] = tested on: rat chorda tympani nerve; conditions: glucose, sucrose, glycine and saccharine; known in the art; cited from earlier work
[2] = tested on: S. aureus (NCTC-8325-4) biofilm; test: S. aureus biofilm assay (microtiter wells, crystal violet stain, OD590); assay type: cell-based, Staphylococcus aureus
Description: In the S. aureus biofilm assay, polystyrene microtiter wells and glass tubes well known in the art were used to develop biofilm in vitro. Fractions dissolved in water were added to a sterile tryptic soy broth (TSB, Difco, Detroit) medium at a final concentration between 0.001-0.01% (w/v). Biofilm was developed and measured according to methods well known in the art. Briefly, a single colony of S. aureus (NCTC-8325-4) (or a clinical isolate) grown on blood agar plate was inoculated into the TSB liquid medium and grown in a shaking water bath at 37° C. until it reached an optical density (OD600) of 0.6-0.8. An aliquot was further diluted in TSB to an OD of 0.05 and 0.1 ml was dispensed into sterile microtiter wells. Solubilized SSF were added to the wells (1 μl/ml from 0.1% of filter sterile stock in water). Cells without SSF served as a control. The microtiter plate was incubated at 37° C. with gentle shaking for up to 16 hours.
(§1) At different time points, cells were collected and assayed for biofilm growth. Unbound cells were aspirated and saved for measuring the growth at OD600 and cell viability on agar plates. Loosely bound cells were removed by washing with phosphate buffer saline (PBS) twice and adherent biofilm cells were stained with 1% crystal violet (CV) stain. After extensive washing, stained cells were air dried, solubilized in dimethylsulfoxide (DMSO) and lysates (100 μl) were measured by a plate reader at OD590.

[3] = tested on: several cell lines (human)
[4] = tested on: poly N-acetylglucosamine (PNAG); test: PNAG western blot of S. aureus biofilm cells (anti-PNAG rabbit polyclonal antibody); assay type: cell-based, Staphylococcus aureus; conditions: for PNAG synthesis in the presence of activator: LBBI-1 and LBBA-1 incubated together during biofilm growth
[5] = tested on: sweet taste; conditions: cited from earlier work
[6] = tested on: S. aureus; test: S. aureus growth (OD600) and cell viability on agar plates; assay type: cell-based, Staphylococcus aureus; conditions: growth in TSB with or without substance
Description: as §1

gurmarin [LBBI-1]
response of the rat chorda tympani nerve to sweet-taste stimuli [1]: suppress the response
biofilm inhibitory property ([2]; 2 μg/ml concentration, microtiter biofilm assay): confirmed
S. aureus biofilm growth ([2]; FIG. 3B): prevents S. aureus biofilm growth
biofilm production in the presence of LBBA-1 ([2]; in the presence of LBBA-1): can inhibit biofilm production
toxicity to cell lines [3]: non-toxic
PNAG synthesis in the presence of activator [4]: almost abolished
PNAG synthesis in the presence of activator ([4]; listed as biofilm inhibitor): suppresses the production of PNAG
PNAG production ([4]; western blot, S. aureus biofilm): significantly less PNAG production
sweet taste suppression in humans [5]: no apparent effect
S. aureus cell growth and viability [6]: did not affect the growth of S. aureus
